Data on 3 molecules can be found in US11058705B2, “Drug formulations” (Astex Pharmaceuticals, Inc., priority 2011, dated 2021).

In brackets after ≈: the same amount, converted by molar mass. Read-outs that look alike come from different tables or passages of the source.

Data set [1] concerns DNA methylation. The data set can be described thus: Cell-based GFP assay for reactivation of silenced GFP transgene (demethylating activity). Conditions: for GFP Expression Level: three days, decitabine 1 μM or test compound 30-50 μM, fraction of viable cells expressing GFP; for EC50: read-out: GFP50. How it is done:
The demethylating activity of compounds of the invention was tested in a cell-based green fluorescent protein (GFP) assay. In the assay, a decrease in methylation resulting from exposure to a methylation inhibitor led to GFP expression, and was readily scored.
The CMV-EE210 cell line containing the epigenetically silenced GFP transgene was used to assay for reactivation of GFP expression by flow cytometry. CMV-EE210 was made by transfecting NIH 3T3 cells with the pTR-UF/UF1/UF2 plasmid, which contained pBS(+) (Stratagene, Inc.) with a cytomegalovirus (CMV) promoter driving a humanized GFP gene adapted for expression in mammalian cells. After transfection, high-level GFP expressing cells were initially selected by FACS analysis and sorting using a MoFlo cytometer (Cytomation, Inc.).
Decitabine, a potent inhibitor of mammalian DNMT 1, was used as a positive control. […] Cells were then seeded to 30% confluence (˜5000 cell/well) in a 96-well plate containing the test compounds, and grown for three days in at 37° C. in 5% CO2.
The plates were examined under a fluorescent microscope using a 450-490 excitation filter (13 filter cube, Leica, Deerfield Ill.). Wells were scored g1 positive, g2 positive, or g3 if GFP was expressed in 10%, 30%, >75% of viable cells, respectively.
Table 1 provides the results of the test for decitabine and the test compounds as DNA methylation inhibitors. GFP50 is the concentration of an inhibitor at which the Green Fluorescent Protein (GFP) expression level is reduced from g3 to g1/2.

Data set [2] in a line: Stability in solvent formulations by HPLC. The data set is classed as physicochemical. The following applies: for % decomposition per hour / Percent compound detected: sodium salt. How it is done: The stability of a compound of the invention in various formulations under various storage conditions was investigated. Stability was determined by HPLC at the designated time intervals.

Data set [3] can be described thus: Solubility in formulation solvent and in water. Format: physicochemical. Conditions: organic solvent or mixture; substantially anhydrous solvent of the formulations of the invention. The text has this: The good chemical stability taken together with the excellent solubility identified the glycol/glycerin/ethanol (65:25:10) system as a formulation for use in animal experiments.

Data set [4] concerns LINE-1 DNA methylation. The data set can be described thus: LINE-1 DNA methylation in blood samples, repeat dose study. Format: in vivo, cynomolgus monkeys. The following applies: until day 22, p<0.05 versus level prior to initial dosing. The method, then:
In a repeat dose study, monkeys were dosed 3× weekly subcutaneously (3 mg/kg). […] (FIGS. 1 and 2.) Pharmacodynamic properties (not shown) were monitored and were acceptable. Blood samples were drawn periodically to assay LINE-1 DNA methylation.

The mark [5] stands for this setting: concentration at which GFP expression level is reduced from g3 to g1/2, CMV-EE210 cells.

Turning to `Nc1ncn([C@H]2CC(O)[C@@H](COP(=O)(O)OC3C[C@H](n4cnc5c(=O)[nH]c(N)nc54)O[C@@H]3CO)O2)c(=O)n1` (some centres unmarked) [Compound I-2], the “GFP Expression Level” value in data set [1] (CMV-EE210 cells) is on record as “g3 (>75% of viable cells)”. Besides, in data set [1] (setting [5]), the EC50 came to 700 nM.

As for `Nc1ncn([C@H]2C[C@H](O)[C@@H](CO)O2)c(=O)n1` [Decitabine, 5-aza-2′-deoxycytidine, reference compound], the “GFP Expression Level” value in data set [1] (CMV-EE210 cells) is listed as “g3 (>75% of viable cells)”. For the same molecule, in data set [1], the EC50 stood at 500 nM.

The term solubility denotes the concentration that dissolves in the medium under given conditions. With `Nc1ncn([C@H]2CC(OP(=O)(O)OC[C@H]3O[C@@H](n4cnc5c(=O)[nH]c(N)nc54)CC3O)[C@@H](CO)O2)c(=O)n1` (stereo in doubt) [Compound I-1], the “GFP Expression Level” value in data set [1] (CMV-EE210 cells) was “g3 (>75% of viable cells)”. Besides, the EC50 in data set [1] (setting [5]) was 400 nM. In data set [2] (anhydrous DMSO), the “Stability in anhydrous DMSO” value is on record as “stable”. Moreover, the Improvement in stability in data set [2] (combined effects of cooling plus addition of ethanol to the propylene glycol/glycerin system) is 66 fold; in data set [2] (propylene glycol/glycerin/ethanol (65:25:10), changing from warmer to colder storage conditions), 40 fold. In addition, the “% decomposition per hour” value in data set [2] (DMSO/water (1:1, w/w), 25° C./60% relative humidity) amounted to 0.72; in data set [2] (DMSO/water (3:1, w/w), 25° C./60% relative humidity) it was 0.10; in data set [2] (propylene glycol/glycerin (70:30, v/v), room temperature) it was 0.021; in data set [2] (propylene glycol/glycerin/ethanol (65:25:10, w/w/w), 2-8° C.) it was 0.00032; in data set [2] (propylene glycol/glycerin/ethanol (65:25:10, w/w/w), 25° C./60% relative humidity) it was 0.013; in data set [2] (water, pH 7.0, 2-8° C.), 0.14. In addition, the “% decomposition per hour” value in data set [2] (water, pH 7.0, room temperature) was found to be 1.1. Moreover, the Percent compound detected in data set [2] (DMSO/water (1:1, w/w), 25° C./60% relative humidity, 5 hours) amounted to 90.1%; in data set [2] (DMSO/water (1:1, w/w), 25° C./60% relative humidity, time point 0), 93.7%; in data set [2] (DMSO/water (3:1, w/w), 25° C./60% relative humidity, 24 hours), 94.2%; in data set [2] (DMSO/water (3:1, w/w), 25° C./60% relative humidity, time point 0) it was 96.6%; in data set [2] (propylene glycol/glycerin (70:30, v/v), room temperature, 24 hours), 96.3%; in data set [2] (propylene glycol/glycerin (70:30, v/v), room temperature, time point 0) it was 96.8%. In addition, the Percent compound detected in data set [2] (propylene glycol/glycerin/ethanol (65:25:10, w/w/w), 2-8° C., 3 months) came out at 95.1%; in data set [2] (propylene glycol/glycerin/ethanol (65:25:10, w/w/w), 2-8° C., time point 0) it was 95.8%; in data set [2] (propylene glycol/glycerin/ethanol (65:25:10, w/w/w), 25° C./60% relative humidity, 3 months), 67.6%; in data set [2] (propylene glycol/glycerin/ethanol (65:25:10, w/w/w), 25° C./60% relative humidity, time point 0), 95.8%; in data set [2] (water, pH 7.0, 2-8° C., 5 hours) it was 95.1%; in data set [2] (water, pH 7.0, 2-8° C., time point 0), 95.8%. Further, the Percent compound detected was 90.4% in data set [2] (water, pH 7.0, room temperature, 5 hours) and 95.8% in data set [2] (water, pH 7.0, room temperature, time point 0). The solubility in data set [3] is 130 to 150 mg/mL (≈ 233 to 269 mM). Also, the “Change in LINE-1 DNA methylation” value in data set [4] was “Decreases in LINE-1 DNA methylation”.
